pEC50: −log10 of the molar value.

For the assay, the target named is T1, human 5-HT4(a) (Homo sapiens, UniProt Q13639).
T1 construct: host or cells: GeneBIAzer HTR4-CRE-bla CHO-K1 cells
T1 sequence (Q13639 1-387 isoform Q13639-2): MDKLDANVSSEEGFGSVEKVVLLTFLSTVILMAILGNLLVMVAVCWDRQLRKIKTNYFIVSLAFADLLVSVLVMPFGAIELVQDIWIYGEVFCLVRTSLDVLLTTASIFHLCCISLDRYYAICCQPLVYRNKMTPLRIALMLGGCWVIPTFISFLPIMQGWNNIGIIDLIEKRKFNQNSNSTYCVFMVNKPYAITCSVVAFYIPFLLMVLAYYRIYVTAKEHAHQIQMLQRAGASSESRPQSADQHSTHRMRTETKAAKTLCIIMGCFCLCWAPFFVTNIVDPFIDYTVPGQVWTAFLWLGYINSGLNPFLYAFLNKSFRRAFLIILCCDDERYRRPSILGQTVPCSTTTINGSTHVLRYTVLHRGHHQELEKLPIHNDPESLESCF
The assay can be described thus: Evaluation of agonistic activity in CHO-K1 cells expressing human 5-HT4(a) (GeneBIAzer HTR4-CRE-bla CHO-K1 cells, beta-lactamase fluorescence ratio, EC50 from 8 concentrations). The format is cell-based. The method, boiled down: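 HTR4-CRE-bla CHO-K1 cells (10^4 per well, overnight in 1% FBS medium) exposed to compound for 5 h, then beta-lactamase substrate 2 h in the dark. Fluorescence ratio at 465/535 nm after 410 nm excitation; EC50 by non-linear regression over 8 concentrations.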
As to `CCCc1cc(N2CCC[C@@H](NCC3CC3)C2)nc(Nc2cc(N)cc(C#N)c2)n1` [Example 229, (R)-3-amino-5-{4-[3-(cyclopropylmethylamino)piperidin-1-yl]-6-propylpyrimidin-2-ylamino}benzonitrile], the pEC50 (usually the negative decadic logarithm of the EC50, by convention in mol/L) is 11.39.
`CCCc1cc(N2CCC[C@@H](NCC3CC3)C2)nc(Nc2ccc(N)c(C(F)(F)F)c2)n1` [Example 230, (R)—N^1-{4-[3-(cyclopropylmethylamino)piperidin-1-yl]-6-propylpyrimidin-2-yl}-3-(trifluoromethyl)benzene-1,4-diamine]: the pEC50 was 11.34.
With `CCCc1cc(N2CCC[C@@H](NCC3CC3)C2)nc(Nc2cc(N)cc(C(F)(F)F)c2)n1` [Example 231, (R)—N^1-{4-[3-(cyclopropylmethylamino)piperidin-1-yl]-6-propylpyrimidin-2-yl}-5-(trifluoromethyl)benzene-1,3-diamine], the pEC50 is 11.20.
As to `CCCCc1cc(N2CCC[C@@H](NC(C)=O)C2)nc(Nc2ccc(N)c([N+](=O)[O-])c2)n1` [Example 232, (R)—N-{1-[2-(4-amino-3-nitrophenylamino)-6-butylpyrimidin-4-yl]piperidin-3-yl}acetamide], the pEC50 was 11.43.
The figure for `CCCCc1cc(N2CCC[C@@H](NC(C)=O)C2)nc(Nc2ccc(C)c([N+](=O)[O-])c2)n1` [Example 233, (R)—N-{1-[6-butyl-2-(4-methyl-3-nitrophenylamino)pyrimidin-4-yl]piperidin-3-yl}acetamide] is 11.05.
For `CCCCc1cc(N2CCC[C@@H](NC(C)=O)C2)nc(Nc2ccc(F)c([N+](=O)[O-])c2)n1` [Example 234, (R)—N-{1-[6-butyl-2-(4-fluoro-3-nitrophenylamino)pyrimidin-4-yl]piperidin-3-yl}acetamide], the pEC50 is 10.82.
The same measure for `CCCCc1cc(N2CCC[C@@H](NC(C)=O)C2)nc(Nc2ccc(Cl)c([N+](=O)[O-])c2)n1` [Example 235, (R)—N-{1-[6-butyl-2-(4-chloro-3-nitrophenylamino)pyrimidin-4-yl]piperidin-3-yl}acetamide]: 10.92; for `CCCCc1cc(N2CCC[C@@H](NC(C)=O)C2)nc(Nc2cc(N)cc(C#N)c2)n1` [Example 236, (R)—N-{1-[2-(3-amino-5-cyanophenylamino)-6-butylpyrimidin-4-yl]piperidin-3-yl}acetamide]: 11.06.
The figure for `CCCCc1cc(N2CCC[C@@H](NC(C)=O)C2)nc(Nc2cc(N)cc(C(F)(F)F)c2)n1` [Example 237, (R)—N-{1-[2-(3-amino-5-trifluoromethylphenylamino)-6-butylpyrimidin-4-yl]piperidin-3-yl}acetamide] is 10.85; for `CCCCc1cc(N2CCC[C@@H](NC(C)=O)C2)nc(Nc2ccc(N)c(C(F)(F)F)c2)n1` [Example 238, (R)—N-{1-[2-(4-amino-3-trifluoromethylphenylamino)-6-butylpyrimidin-4-yl]piperidin-3-yl}acetamide] it is 11.08.
Regarding `CCCCc1cc(N2CCC[C@@H](NC(C)=O)C2)nc(Nc2ccc(F)c(C(F)(F)F)c2)n1` [Example 239, (R)—N-{1-[6-butyl-2-(4-fluoro-3-trifluoromethylphenylamino)pyrimidin-4-yl]piperidin-3-yl}acetamide], the pEC50 is 10.77.
Consider `CCCCc1cc(N2CCC[C@@H](NC(C)=O)C2)nc(Nc2ccc(F)c(C#N)c2)n1` [Example 240, (R)—N-{1-[6-butyl-2-(3-cyano-4-fluorophenylamino)pyrimidin-4-yl]piperidin-3-yl}acetamide], for which the pEC50 was 10.92.
The same measure for `CCCCc1cc(N2CCC[C@@H](NC(C)=O)C2)nc(Nc2ccc(F)c(N)c2)n1` [Example 241, (R)—N-{1-[2-(3-amino-4-fluorophenylamino)-6-butylpyrimidin-4-yl]piperidin-3-yl}acetamide]: 10.85; for `CCCCc1cc(N2CCC[C@@H](NC(C)=O)C2)nc(Nc2ccc(Cl)c(N)c2)n1` [Example 242, (R)—N-{1-[2-(3-amino-4-chlorophenylamino)-6-butylpyrimidin-4-yl]piperidin-3-yl}acetamide]: 11.04.
`CCCCc1cc(N2CCC[C@@H](NC(C)=O)C2)nc(Nc2ccc(N)c(C#N)c2)n1` [Example 243, (R)—N-{1-[2-(4-amino-3-cyanophenylamino)-6-butylpyrimidin-4-yl]piperidin-3-yl}acetamide]: the pEC50 is 11.03.
The same measure for `CCCc1cc(N2CCC[C@@H](NC(=O)CO)C2)nc(Nc2ccc(C)c(C#N)c2)n1` [Example 244, (R)—N-{1-[2-(3-cyano-4-methylphenylamino)-6-propylpyrimidin-4-yl]piperidin-3-yl}-2-hydroxyacetamide]: 10.70; for `CCCc1cc(N2CCC[C@@H](NC(=O)CO)C2)nc(Nc2cccc(C#N)c2)n1` [Example 245, (R)—N-{1-[2-(3-cyanophenylamino)-6-propylpyrimidin-4-yl]piperidin-3-yl}-2-hydroxyacetamide]: 10.33; for `CCCc1cc(N2CCC[C@@H](NC(=O)CO)C2)nc(Nc2ccc(F)c(C#N)c2)n1` [Example 246, (R)—N-{1-[2-(3-cyano-4-fluorophenylamino)-6-propylpyrimidin-4-yl]piperidin-3-yl}-2-hydroxyacetamide]: 10.22.
Take `CCCc1cc(N2CCC[C@@H](NC(=O)CO)C2)nc(Nc2cc(N)cc(C(F)(F)F)c2)n1` [Example 247, (R)—N-(1-{2-[3-amino-5-(trifluoromethyl)phenylamino]-6-propylpyrimidin-4-yl}piperidin-3-yl)-2-hydroxyacetamide]: the negative logarithm of the EC50 (pEC50) is 10.64.
For the molecule `CCCc1cc(N2CCC[C@@H](NC(=O)CO)C2)nc(Nc2ccc(N)c(C(F)(F)F)c2)n1` [Example 248, (R)—N-(1-{2-[4-amino-3-(trifluoromethyl)phenylamino]-6-propylpyrimidin-4-yl}piperidin-3-yl)-2-hydroxyacetamide], the pEC50 was 10.74.
For `CCCc1cc(N2CCC[C@@H](NC(=O)CO)C2)nc(Nc2ccc(F)c(C(F)(F)F)c2)n1` [Example 249, (R)—N-(1-{2-[4-fluoro-3-(trifluoromethyl)phenylamino]-6-propylpyrimidin-4-yl}piperidin-3-yl)-2-hydroxyacetamide], the pEC50 is 10.60.
Turning to `CCCc1cc(N2CCC[C@@H](NC(=O)CO)C2)nc(Nc2ccc(F)c(N)c2)n1` [Example 250, (R)—N-{1-[2-(3-amino-4-fluorophenylamino)-6-propylpyrimidin-4-yl]piperidin-3-yl}-2-hydroxyacetamide], the pEC50 is 10.57.
For the molecule `CCCc1cc(N2CCC[C@@H](NC(=O)CO)C2)nc(Nc2ccc(Cl)c(N)c2)n1` [Example 251, (R)—N-{1-[2-(3-amino-4-chlorophenylamino)-6-propylpyrimidin-4-yl]piperidin-3-yl}-2-hydroxyacetamide], the pEC50 was 10.80.
As to `CCCc1cc(N2CCC[C@@H](NC(=O)CO)C2)nc(Nc2ccc(C)c(N)c2)n1` [Example 252, (R)—N-{1-[2-(3-amino-4-methylphenylamino)-6-propylpyrimidin-4-yl]piperidin-3-yl}-2-hydroxyacetamide], the pEC50 was 10.03.
With `CCCc1cc(N2CCC[C@@H](NC(=O)CO)C2)nc(Nc2ccc(C)c(Cl)c2)n1` [Example 253, (R)—N-{1-[2-(3-chloro-4-methylphenylamino)-6-propylpyrimidin-4-yl]piperidin-3-yl}-2-hydroxyacetamide], the negative-log EC50 (pEC50) was 10.24.

The values above are taken from US9850227B2 (YUHAN CORPORATION, priority 2011, dated 2017).
